Experimental data as given in PubChem BioAssay (NCI).
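Following 48 hours of exposure in 96-well plates, responses at five concentrations were used to interpolate endpoints linearly. Abbreviation: GI50, concentration required for 50% inhibition of growth. TGI is the concentration that stops growth completely.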

What was measured:
Test in all cases: inhibition of tumour cell growth, NCI panel, 48 h
786-0 renal = test system: 786-0 renal
SF-268 CNS = test system: SF-268 CNS
EKVX NSCLC = test system: EKVX NSCLC
UO-31 renal = test system: UO-31 renal
SNB-75 CNS = test system: SNB-75 CNS
NCI-H460 lung = test system: NCI-H460 lung
SK-MEL-2 melanoma = test system: SK-MEL-2 melanoma
SNB-19 CNS = test system: SNB-19 CNS
CAKI-1 renal = test system: CAKI-1 renal
SK-MEL-28 melanoma = test system: SK-MEL-28 melanoma
UACC-257 melanoma = test system: UACC-257 melanoma
HT29 colon = test system: HT29 colon
NCI-H23 lung = test system: NCI-H23 lung

| Structure (SMILES) | TGI (786-0 renal) [µM] | TGI (SF-268 CNS) [µM] | TGI (EKVX NSCLC) [µM] | TGI (UO-31 renal) [µM] | TGI (SNB-75 CNS) [µM] | TGI (NCI-H460 lung) [µM] | TGI (SK-MEL-2 melanoma) [µM] | TGI (SNB-19 CNS) [µM] | TGI (CAKI-1 renal) [µM] | TGI (SK-MEL-28 melanoma) [µM] | TGI (UACC-257 melanoma) [µM] | TGI (HT29 colon) [µM] | TGI (NCI-H23 lung) [µM] | GI50 (SF-268 CNS) [µM] | GI50 (EKVX NSCLC) [µM] | GI50 (UO-31 renal) [µM] | GI50 (NCI-H460 lung) [µM] | GI50 (SK-MEL-2 melanoma) [µM] | GI50 (CAKI-1 renal) [µM] | GI50 (NCI-H23 lung) [µM] |
| --- | --- | --- | --- | --- | --- | --- | --- | --- | --- | --- | --- | --- | --- | --- | --- | --- | --- | --- | --- | --- |
| CC(C)(C)C(=O)C(C(c1ccccc1)N1CCOCC1)N1CCOCC1 (stereo unspecified) | > 100 | > 100 | > 100 | > 100 | > 100 | > 100 | > 100 | > 100 | > 100 | > 100 | > 100 | > 100 | > 100 | – | – | – | – | – | – | – |
| CC(=O)Oc1ccccc1C(=O)O | > 100 | > 100 | > 100 | > 100 | > 100 | – | > 100 | > 100 | > 100 | > 100 | > 100 | > 100 | > 100 | – | – | – | – | – | – | – |
| Cn1c(-c2ccc(/C=N\N3CCN(/N=C/c4ccc(-c5c[n+]6ccsc6n5C)cc4)CC3)cc2)c[n+]2ccsc12 | > 100 | > 100 | > 100 | > 100 | 93.1 | > 100 | > 100 | > 100 | > 100 | – | 67.9 | > 100 | > 100 | – | – | – | – | – | – | – |
| Cc1ccc(-c2csc(=Nc3c(C)n(C)n(-c4ccccc4)c3=O)n2CCO)cc1 | – | > 100 | > 100 | > 100 | > 100 | > 100 | > 100 | > 100 | > 100 | > 100 | > 100 | – | > 100 | – | – | – | – | – | – | – |
| CCO[C@]12C[C@H](OC)[C@@]3(O)CC(C1[C@H]3O)C13C4C2[C@H](OC)C1[C@](COC)(CN4CC)[C@H](O)C[C@@H]3OC (stereo partly specified) | – | > 100 | > 100 | > 100 | – | > 100 | – | > 100 | – | > 100 | > 100 | > 100 | > 100 | – | – | – | – | – | – | – |
| COc1cc2c3c(n(CCCNCCCNCCCn4c5c(c6ccccc6c4=O)C(=O)c4ccccc4-5)c(=O)c2cc1OC)-c1cc2c(cc1C3=O)OCO2 | 1.07 | 0.0217 | 0.578 | 1.69 | – | 0.0113 | 3.1 | – | 2.53 | – | – | – | 0.0826 | < 0.01 | < 0.01 | 0.0272 | < 0.01 | 0.64 | 0.158 | < 0.01 |
| Clc1c(Cl)c2c(Cl)c(Cl)c1C[P+](c1ccccc1)(c1ccccc1)CC[P+](c1ccccc1)(c1ccccc1)Cc1c(Cl)c(Cl)c(c(Cl)c1Cl)C[P+](c1ccccc1)(c1ccccc1)CC[P+](c1ccccc1)(c1ccccc1)C2 | 19.5 | 12.6 | 21.7 | 21.2 | 14.2 | 12.4 | 6.09 | 13.4 | 33.1 | 5.13 | 6.38 | 10.3 | 5.25 | – | – | – | – | – | – | – |
| CC(C)[C@](O)(C(=O)OCC1CC[N+]2([O-])CC[C@@H](O)C12)[C@H](C)O (stereo partly specified) | – | > 375 | > 375 | > 375 | > 161 | > 159 | > 317 | > 375 | > 375 | > 375 | > 375 | > 375 | > 375 | – | – | – | – | – | – | – |
| CCCCN1C(=O)NC(Cc2ccccc2)C1=O (stereo unspecified) | – | > 100 | > 100 | > 100 | > 100 | > 100 | > 100 | > 100 | > 100 | > 100 | > 100 | > 100 | > 100 | – | – | – | – | – | – | – |
| CC#C[I+]c1ccccc1 | 28.4 | 35.1 | 36.7 | 97.5 | > 100 | > 100 | > 100 | > 100 | 27.9 | 50.4 | 51.7 | 34.5 | 39.7 | – | – | – | – | – | – | – |
| OCCN(CCO)c1ccc2c(c1)Cc1ccccc1-2 | > 100 | > 100 | > 100 | > 100 | – | 50 | 63.2 | > 100 | 32 | > 100 | 96.7 | 37.8 | > 100 | – | – | – | – | – | – | – |
| CCCCCCCCCCCCCCCCOCC(COP(=O)([O-])OCC[N+](C)(C)C)OCCCCCCCCCCCCCCCC (stereo unspecified) | – | > 100 | > 100 | > 100 | > 100 | > 100 | > 100 | > 100 | > 100 | > 100 | > 100 | > 100 | > 100 | – | – | – | – | – | – | – |
